Experiment [1] relates to permanent focal cerebral ischaemia in the rat (MCA-O). Briefly: Permanent focal cerebral ischaemia in the rat (MCA-O). The format is in vivo. Particulars: 0.01 mg/kg/h intravenous continuous infusion directly up to 4 hours after the occlusion, infarct size determined after 7 days. The method, then:
Permanent Focal Cerebral Ischaemia in the Rat (MCA-O)
Under isoflurane anaesthesia, the middle cerebral artery is exposed on one side and the latter and its side branches are irreversibly sealed by means of electrocoagulation. As a result of the intervention a cerebral infarct is formed. During the operation, the body temperature of the animal is kept at 37° C. After wound closure and wearing off of the anaesthesia, the animals are again released into their cage. Substance administration is carried out according to different time schemes and via different administration routes (i.v., i.p.) after occlusion. The infarct size is determined after 7 days. To do this, the brain is removed, worked up histologically and the infarct volume is determined with the aid of a computer-assisted analysis system.

Experiment [2] deals with subdural haematoma in the rat (SDH). Briefly: Subdural haematoma in the rat (SDH). Type of experiment: in vivo. Particulars: 0.01 mg/kg/h intravenous continuous infusion directly up to 4 hours post-trauma. On the procedure: Subdural Haematoma in the Rat (SDH)
Under anaesthesia, the animal's own blood is injected subdurally on one side. An infarct is formed under the haematoma. Substance administration is earned out according to different time schemes and via different administration routes (i.v., i.p.).
The determination of the infarct size is carried out as described in the model of permanent focal ischaemia in the rat (MCA-O).

As to `C=C1C[C@@H]2COC(=O)[C@]2(Cc2ccc3ccccc3c2)C1` [Example 35], the results for the “% reduction of infarct volume” value in experiment [1] and in experiment [2] were 38% and 51%, respectively.

These data come from patent publication US6723718B2, “Substituted α, β-anellated butyrolactones” (Bayer Aktiengesellschaft, priority 1998, dated 2004).
